The text below walks through data of US9161922B2, “Amine oxidase inhibitors” (Case Western Reserve University, priority 2005, dated 2015).

Structures are written as SMILES. pIC50: −log10 of the molar value. Read-outs that look alike come from different tables or passages of the source.

What all share (assay type): biochemical
The target of test [1] is bovine plasma amine oxidase (BPAO) (Bos taurus (Bovine), UniProt Q29437). Description: Inactivation of bovine plasma amine oxidase (benzylamine oxidation rate, absorbance at 250 nm). On the procedure:
The rate of oxidation of benzylamine to benzaldehyde was measured by recording the increase in absorbance at 250 nm for 1 minute and compared to the rate of benzylamine oxidation in a companion control solution of enzyme without inhibitor. The concentration of active BPAO was estimated from the rate of benzylamine oxidation. Inhibitory potency values (IC50 values) and partition values for inactivation of BPAO were measured at various times as in indicated in the Tables. IC50 values for lysyl oxidase (LO), arthrobacter globoformis amine oxidase (AGAO) and pichia pastoris lysyl oxidase (PPLO) were also measured in a similar manner.

In test [2] the target is lysyl oxidase (LO) (Homo sapiens (Human), UniProt P28300). Description: Lysyl oxidase inhibition. The conditions noted are these: for IC75: 20 min, assay performed at Boston University; for IC50 (BPAO)/IC75(LO): ratio BPAO over LO. The method, then:
(§1) In the following Examples, 0.9 mL aliquots of a solution of candidate inhibitor in 100 mM potassium phosphate buffer, pH 7.2 was mixed bovine plasma amine oxidase (0.1 mL, about […]) and incubated at 30° C. aerobically. Aliquots (0.1 mL) were periodically withdrawn using disposable calibrated Drummond micropipettes and diluted with 1.0 mL of benzylamine (5 mM in 50 mM sodium phosphate buffer, pH 7.2) in a 1 cm quartz cuvette (1.5 mL volume). The rate of oxidation of benzylamine to benzaldehyde was measured by recording the increase in absorbance at 250 nm for 1 minute and compared to the rate of benzylamine oxidation in a companion control solution of enzyme without inhibitor. The concentration of active BPAO was estimated from the rate of benzylamine oxidation. Inhibitory potency values (IC50 values) and partition values for inactivation of BPAO were measured at various times as in indicated in the Tables. IC50 values for lysyl oxidase (LO), arthrobacter globoformis amine oxidase (AGAO) and pichia pastoris lysyl oxidase (PPLO) were also measured in a similar manner.

Test [3] deals with arthrobacter globiformis amine oxidase (AGAO) (Arthrobacter globiformis, UniProt P46881). Put plainly: Arthrobacter globiformis amine oxidase inhibition. The method, then: as §1
In test [4] the target is pichia pastoris lysyl oxidase (PPLO) (Komagataella pastoris (Yeast) (Pichia pastoris), UniProt Q96X16). Put plainly: Pichia pastoris lysyl oxidase inhibition. The conditions noted are these: 30 min. On the procedure:
as §1

lysyl oxidase (LO), sequence (P28300 169-417, species assumed): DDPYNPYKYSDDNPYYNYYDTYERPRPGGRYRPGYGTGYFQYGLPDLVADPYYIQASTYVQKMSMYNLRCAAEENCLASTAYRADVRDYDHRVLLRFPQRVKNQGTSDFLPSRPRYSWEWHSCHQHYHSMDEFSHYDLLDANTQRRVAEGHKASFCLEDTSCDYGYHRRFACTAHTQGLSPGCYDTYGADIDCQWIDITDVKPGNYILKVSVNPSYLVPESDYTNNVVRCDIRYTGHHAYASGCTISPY
bovine plasma amine oxidase (BPAO), sequence (Q29437 17-762): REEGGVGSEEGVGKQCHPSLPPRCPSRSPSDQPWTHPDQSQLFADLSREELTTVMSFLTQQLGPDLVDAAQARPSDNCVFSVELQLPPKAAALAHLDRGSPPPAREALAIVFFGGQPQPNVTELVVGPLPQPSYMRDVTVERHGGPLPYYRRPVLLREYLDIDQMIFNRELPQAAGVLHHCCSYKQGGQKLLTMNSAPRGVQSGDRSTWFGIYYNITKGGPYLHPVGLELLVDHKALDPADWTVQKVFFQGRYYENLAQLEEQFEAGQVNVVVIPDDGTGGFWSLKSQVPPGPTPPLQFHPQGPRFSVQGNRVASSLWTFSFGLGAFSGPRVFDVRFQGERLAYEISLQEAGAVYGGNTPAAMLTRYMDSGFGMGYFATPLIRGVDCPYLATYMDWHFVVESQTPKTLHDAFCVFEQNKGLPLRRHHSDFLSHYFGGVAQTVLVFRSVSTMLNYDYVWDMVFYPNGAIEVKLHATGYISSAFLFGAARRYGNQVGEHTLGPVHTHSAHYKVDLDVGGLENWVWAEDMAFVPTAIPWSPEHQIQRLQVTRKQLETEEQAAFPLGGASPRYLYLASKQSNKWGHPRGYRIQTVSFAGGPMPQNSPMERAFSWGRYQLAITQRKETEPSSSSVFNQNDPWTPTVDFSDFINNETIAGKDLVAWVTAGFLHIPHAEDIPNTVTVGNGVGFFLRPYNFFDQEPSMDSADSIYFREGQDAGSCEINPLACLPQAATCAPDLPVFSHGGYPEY
pichia pastoris lysyl oxidase (PPLO), sequence (Q96X16 entry or part of it): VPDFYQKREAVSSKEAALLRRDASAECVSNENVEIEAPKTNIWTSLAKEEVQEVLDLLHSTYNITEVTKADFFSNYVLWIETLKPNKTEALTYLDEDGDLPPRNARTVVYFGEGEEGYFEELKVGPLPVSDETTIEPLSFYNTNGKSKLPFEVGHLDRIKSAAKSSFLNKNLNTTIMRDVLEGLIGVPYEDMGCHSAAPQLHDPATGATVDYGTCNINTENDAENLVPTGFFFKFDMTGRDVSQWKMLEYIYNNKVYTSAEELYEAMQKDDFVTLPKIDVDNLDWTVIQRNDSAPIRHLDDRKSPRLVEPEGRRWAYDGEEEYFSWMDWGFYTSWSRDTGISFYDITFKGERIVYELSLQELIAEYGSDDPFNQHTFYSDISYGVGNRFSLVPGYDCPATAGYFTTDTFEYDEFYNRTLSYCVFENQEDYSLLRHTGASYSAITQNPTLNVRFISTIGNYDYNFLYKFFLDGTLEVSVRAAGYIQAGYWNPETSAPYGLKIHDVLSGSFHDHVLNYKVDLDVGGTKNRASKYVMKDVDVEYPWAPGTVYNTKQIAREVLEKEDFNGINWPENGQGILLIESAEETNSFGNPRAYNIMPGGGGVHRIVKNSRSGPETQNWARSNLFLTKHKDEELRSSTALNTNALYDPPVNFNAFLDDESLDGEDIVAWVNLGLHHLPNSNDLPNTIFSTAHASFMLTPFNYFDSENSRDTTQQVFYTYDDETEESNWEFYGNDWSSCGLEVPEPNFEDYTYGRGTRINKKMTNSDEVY

The term pIC50 denotes −log10 of the IC50, conventionally taken in molar units. For orientation: IC75 means the concentration needed for an effect of 75%. A lower IC75 goes with an effect from little substance. As for `CCN(CC)C(=O)C(N)CC#CCN` (stereo not shown) [R = NEt2], the pIC50 was 2.00 in test [1]; 5.15 in test [3] (determined on the basis of reversible competitive inhibition, read-out: IC50 (30 min) AGAO); 2.30 in test [4]. In test [2], this compound displayed an IC75 of 250 µM. Further, the “IC50 (BPAO)/IC75(LO)” value in test [2] is given as 40.

For the compound `NCC#CCC(N)C(=O)NCCc1ccccc1` (stereo not shown) [R = NHCH2CH2Ph], the pIC50 in test [1] is 2.74. Further, in test [2], the concentration for an effect of 75% (IC75) stood at 450 µM and the “IC50 (BPAO)/IC75(LO)” value came to 1.11. This compound had a pIC50 in test [3] (30 min) of 3.60.

Consider `CCOC(=O)CNC(=O)CNC(=O)C(N)CC#CCN` (stereo not shown) [R = NHCH2CONHCH2COOEt], for which, in test [1], the pIC50 is 4.05. For the same compound, in test [2], the IC75 was 650 µM and the “IC50 (BPAO)/IC75(LO)” value is on record as 0.14. Further, in test [3] (30 min), the pIC50 was 2.46.
